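The compound was tested at five concentrations on cells cultured in 96-well plates, with a 48-hour exposure period. GI50 marks 50% less growth.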 The source made the active and inactive calls. Cut-off read from the data, not from the text of the source: active = GI50 up to about 1.1 µM and inactive = higher.
Experiments:
Assay in all cases: NCI anticancer screen, dose series, 48 h
786-0 = system: 786-0
A549 = system: A549
ACHN = system: ACHN
CCRF-CEM = system: CCRF-CEM
COLO 205 = system: COLO 205
DLD-1 = system: DLD-1
DMS-114 = system: DMS-114
DMS-273 = system: DMS-273
EKVX = system: EKVX
HCC 2998 = system: HCC 2998
HCT-116 = system: HCT-116
HL-60 = system: HL-60
HOP-62 = system: HOP-62
HOP-92 = system: HOP-92
HT-29 = system: HT-29
IGROV-1 = system: IGROV-1
K562 = system: K562
KM-20L2 = system: KM-20L2
KM12 = system: KM12
LOX IMVI = system: LOX IMVI
LXFL 529 = system: LXFL 529
M14 = system: M14
M19-MEL = system: M19-MEL
MOLT-4 = system: MOLT-4
Malme-3M = system: Malme-3M
NCI-H226 = system: NCI-H226
NCI-H23 = system: NCI-H23
NCI-H460 = system: NCI-H460
NCI-H522 = system: NCI-H522
OVCAR-3 = system: OVCAR-3
OVCAR-8 = system: OVCAR-8
RPMI-8226 = system: RPMI-8226
RXF 393 = system: RXF 393
SF-268 = system: SF-268
SF-295 = system: SF-295
SF-539 = system: SF-539
SK-MEL-28 = system: SK-MEL-28
SK-MEL-2 = system: SK-MEL-2
SK-OV-3 = system: SK-OV-3
SN12C = system: SN12C
SNB-19 = system: SNB-19
SNB-75 = system: SNB-75
SNB-78 = system: SNB-78
SR = system: SR
SW-620 = system: SW-620
TK-10 = system: TK-10
U-251 = system: U-251
UACC-257 = system: UACC-257
UACC-62 = system: UACC-62
UO-31 = system: UO-31
XF498 = system: XF498
CAKI-1 = system: CAKI-1
HCT-15 = system: HCT-15
OVCAR-4 = system: OVCAR-4
SK-MEL-5 = system: SK-MEL-5
A498 = system: A498
OVCAR-5 = system: OVCAR-5

O=C1C2=C(CCCCC2)C2CCCCC12O (configuration not stated)
GI50 (786-0): > 100 µM (inactive)
GI50 (A549): > 100 µM (inactive)
GI50 (ACHN): > 100 µM (inactive)
GI50 (CCRF-CEM): > 100 µM (inactive)
GI50 (COLO 205): > 100 µM (inactive)
GI50 (DLD-1): > 100 µM (inactive)
GI50 (DMS-114): > 100 µM (inactive)
GI50 (DMS-273): > 100 µM (inactive)
GI50 (EKVX): > 100 µM (inactive)
GI50 (HCC 2998): > 100 µM (inactive)
GI50 (HCT-116): > 100 µM (inactive)
GI50 (HL-60): > 100 µM (inactive)
GI50 (HOP-62): > 100 µM (inactive)
GI50 (HOP-92): > 100 µM (inactive)
GI50 (HT-29): > 100 µM (inactive)
GI50 (IGROV-1): > 100 µM (inactive)
GI50 (K562): > 100 µM (inactive)
GI50 (KM-20L2): > 100 µM (inactive)
GI50 (KM12): > 100 µM (inactive)
GI50 (LOX IMVI): > 100 µM (inactive)
GI50 (LXFL 529): > 100 µM (inactive)
GI50 (M14): > 100 µM (inactive)
GI50 (M19-MEL): > 100 µM (inactive)
GI50 (MOLT-4): > 100 µM (inactive)
GI50 (Malme-3M): > 100 µM (inactive)
GI50 (NCI-H226): > 100 µM (inactive)
GI50 (NCI-H23): > 100 µM (inactive)
GI50 (NCI-H460): > 100 µM (inactive)
GI50 (NCI-H522): > 100 µM (inactive)
GI50 (OVCAR-3): > 100 µM (inactive)
GI50 (OVCAR-8): > 100 µM (inactive)
GI50 (RPMI-8226): > 100 µM (inactive)
GI50 (RXF 393): > 100 µM (inactive)
GI50 (SF-268): > 100 µM (inactive)
GI50 (SF-295): > 100 µM (inactive)
GI50 (SF-539): > 100 µM (inactive)
GI50 (SK-MEL-28): > 100 µM (inactive)
GI50 (SK-MEL-2): > 100 µM (inactive)
GI50 (SK-OV-3): > 100 µM (inactive)
GI50 (SN12C): > 100 µM (inactive)
GI50 (SNB-19): > 100 µM (inactive)
GI50 (SNB-75): > 100 µM (inactive)
GI50 (SNB-78): > 100 µM (inactive)
GI50 (SR): > 100 µM (inactive)
GI50 (SW-620): > 100 µM (inactive)
GI50 (TK-10): > 100 µM (inactive)
GI50 (U-251): > 100 µM (inactive)
GI50 (UACC-257): > 100 µM (inactive)
GI50 (UACC-62): > 100 µM (inactive)
GI50 (UO-31): > 100 µM (inactive)
GI50 (XF498): > 100 µM (inactive)

CCN(CC)CSc1nc2ccccc2s1
GI50 (A549): > 100 µM (inactive)
GI50 (CAKI-1): > 100 µM (inactive)
GI50 (CCRF-CEM): > 100 µM (inactive)
GI50 (COLO 205): > 100 µM (inactive)
GI50 (DMS-114): > 100 µM (inactive)
GI50 (DMS-273): > 100 µM (inactive)
GI50 (EKVX): > 100 µM (inactive)
GI50 (HCC 2998): > 100 µM (inactive)
GI50 (HCT-15): > 100 µM
GI50 (HL-60): > 100 µM (inactive)
GI50 (HOP-92): > 100 µM (inactive)
GI50 (HT-29): > 100 µM (inactive)
GI50 (IGROV-1): > 100 µM (inactive)
GI50 (K562): > 100 µM (inactive)
GI50 (KM12): > 100 µM (inactive)
GI50 (LOX IMVI): > 100 µM (inactive)
GI50 (LXFL 529): > 100 µM (inactive)
GI50 (M14): > 100 µM (inactive)
GI50 (M19-MEL): > 100 µM (inactive)
GI50 (MOLT-4): > 100 µM (inactive)
GI50 (NCI-H226): > 100 µM (inactive)
GI50 (NCI-H23): > 100 µM (inactive)
GI50 (NCI-H522): > 100 µM (inactive)
GI50 (OVCAR-3): > 100 µM (inactive)
GI50 (OVCAR-4): > 100 µM (inactive)
GI50 (OVCAR-8): > 100 µM (inactive)
GI50 (RPMI-8226): > 100 µM (inactive)
GI50 (SF-539): > 100 µM (inactive)
GI50 (SK-MEL-28): > 100 µM (inactive)
GI50 (SK-MEL-5): > 100 µM (inactive)
GI50 (SK-OV-3): > 100 µM (inactive)
GI50 (SN12C): > 100 µM (inactive)
GI50 (SNB-75): > 100 µM (inactive)
GI50 (SNB-78): > 100 µM (inactive)
GI50 (SW-620): > 100 µM (inactive)
GI50 (TK-10): > 100 µM (inactive)
GI50 (UACC-257): > 100 µM (inactive)
GI50 (UACC-62): > 100 µM (inactive)
GI50 (XF498): > 100 µM (inactive)

CN1C/C(=C\c2ccccc2)C2=NN(C(N)=S)[C@H](c3ccccc3)[C@@H]2C1
GI50 (786-0): 64 µM (inactive)
GI50 (A498): > 100 µM (inactive)
GI50 (A549): 52 µM (inactive)
GI50 (ACHN): 76.7 µM (inactive)
GI50 (CCRF-CEM): 45.6 µM (inactive)
GI50 (COLO 205): 38.5 µM (inactive)
GI50 (DLD-1): 53.7 µM (inactive)
GI50 (DMS-273): 47.4 µM (inactive)
GI50 (EKVX): > 100 µM (inactive)
GI50 (HCC 2998): > 100 µM (inactive)
GI50 (HCT-116): 37.3 µM (inactive)
GI50 (HCT-15): > 100 µM
GI50 (HL-60): 21.7 µM (inactive)
GI50 (HOP-62): > 100 µM (inactive)
GI50 (HOP-92): 75.3 µM (inactive)
GI50 (HT-29): 32.9 µM (inactive)
GI50 (IGROV-1): > 100 µM (inactive)
GI50 (K562): 36 µM (inactive)
GI50 (KM-20L2): 55.6 µM (inactive)
GI50 (KM12): 54 µM (inactive)
GI50 (LOX IMVI): > 100 µM (inactive)
GI50 (LXFL 529): 29.4 µM (inactive)
GI50 (M14): 95.1 µM (inactive)
GI50 (M19-MEL): 55.2 µM (inactive)
GI50 (MOLT-4): 89.1 µM (inactive)
GI50 (Malme-3M): 36.6 µM (inactive)
GI50 (NCI-H226): 75.5 µM (inactive)
GI50 (NCI-H23): 56.4 µM (inactive)
GI50 (NCI-H460): 50.5 µM (inactive)
GI50 (NCI-H522): 40 µM (inactive)
GI50 (OVCAR-3): > 100 µM (inactive)
GI50 (OVCAR-4): 56.6 µM (inactive)
GI50 (OVCAR-5): > 100 µM (inactive)
GI50 (RPMI-8226): 0.276 µM (active)
GI50 (RXF 393): 34.4 µM (inactive)
GI50 (SF-268): > 100 µM (inactive)
GI50 (SF-295): 87.9 µM (inactive)
GI50 (SF-539): > 100 µM (inactive)
GI50 (SK-MEL-28): > 100 µM (inactive)
GI50 (SK-MEL-2): > 100 µM (inactive)
GI50 (SK-OV-3): > 100 µM (inactive)
GI50 (SN12C): > 100 µM (inactive)
GI50 (SNB-19): > 100 µM (inactive)
GI50 (SNB-78): 28.1 µM (inactive)
GI50 (SR): > 100 µM (inactive)
GI50 (SW-620): > 100 µM (inactive)
GI50 (TK-10): > 100 µM (inactive)
GI50 (U-251): > 100 µM (inactive)
GI50 (UACC-257): 59.2 µM (inactive)
GI50 (UACC-62): 74.6 µM (inactive)
GI50 (UO-31): 36.9 µM (inactive)
GI50 (XF498): > 100 µM (inactive)
